Results taken from PubChem BioAssay AID1845210 (Molecular Pharmacology Branch, DTP, NCI, 2023).

Tested on: NCI-H226 complex tumor spheroids, viability
Experiment: Anticancer human tumor NCI-H226 cell line growth inhibition;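 further: spheroids exposed to compound for 7 days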;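 on viability, T/C: 100% = DMSO vehicle control viability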
Conditions: for IC50: curve of first compound; for viability, T/C: stronger effect = lower value
In short: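 Complex tumor spheroids combined malignant cells with endothelial cells and mesenchymal stem cells. DNA-damaging drugs and DNA repair inhibitors were tested alone and in combination, at half-log dilutions down from clinical Cmax (top 10 microM if Cmax unknown), 0.25% DMSO final.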

[1] = second compound 30 pM, first compound 0.0949 µM
[2] = second compound 30 pM, first compound 0.3 µM
[3] = second compound 30 pM, first compound 0.949 µM
[4] = second compound 30 pM, first compound 3 µM
[5] = second compound 94.9 pM, first compound 0.0949 µM
[6] = second compound 94.9 pM, first compound 0.3 µM
[7] = second compound 94.9 pM, first compound 0.949 µM
[8] = second compound 94.9 pM, first compound 3 µM
[9] = second compound 0.0003 µM, first compound 0.0949 µM
[10] = second compound 0.0003 µM, first compound 0.3 µM
[11] = second compound 0.0003 µM, first compound 0.949 µM
[12] = second compound 0.0003 µM, first compound 3 µM
[13] = second compound 0.000949 µM, first compound 0.0949 µM
[14] = second compound 0.000949 µM, first compound 0.3 µM
[15] = second compound 0.000949 µM, first compound 0.949 µM
[16] = second compound 0.000949 µM, first compound 3 µM
[17] = second compound 0.003 µM, first compound 0.0949 µM
[18] = second compound 0.003 µM, first compound 0.3 µM
[19] = second compound 0.003 µM, first compound 0.949 µM
[20] = second compound 0.003 µM, first compound 3 µM

SMILES	IC50 (second compound 30 pM) [µM]	IC50 (second compound 94.9 pM) [µM]	IC50 (second compound 0.0003 µM) [µM]	IC50 (second compound 0.000949 µM) [µM]	IC50 (second compound 0.003 µM) [µM]	viability, T/C [1] [%]	viability, T/C [2] [%]	viability, T/C [3] [%]	viability, T/C [4] [%]	viability, T/C [5] [%]	viability, T/C [6] [%]	viability, T/C [7] [%]	viability, T/C [8] [%]	viability, T/C [9] [%]	viability, T/C [10] [%]	viability, T/C [11] [%]	viability, T/C [12] [%]	viability, T/C [13] [%]	viability, T/C [14] [%]	viability, T/C [15] [%]	further results
Cn1ncnc1[C@H]1c2n[nH]c(=O)c3cc(F)cc(c23)N[C@@H]1c1ccc(F)cc1 + COc1cc2c(cc1O)CCNC21CSC2c3c(OC(C)=O)c(C)c4c(c3C(COC1=O)N1C(O)C3Cc5cc(C)c(OC)c(O)c5C(C21)N3C)OCO4	> 3	> 3	> 3	> 3	0.157	106	92.8	91.3	111	104	102	101	110	113	119	119	113	71.1	93.3	87.1	viability, T/C (second compound 30 pM, first compound 0.00949 µM): 90%; viability, T/C (second compound 30 pM, first compound 0.03 µM): 103%; viability, T/C (second compound 94.9 pM, first compound 0.00949 µM): 103%; viability, T/C (second compound 94.9 pM, first compound 0.03 µM): 101%; viability, T/C (second compound 0.0003 µM, first compound 0.00949 µM): 122%; viability, T/C (second compound 0.0003 µM, first compound 0.03 µM): 100%; viability, T/C (second compound 0.000949 µM, first compound 0.00949 µM): 79.2%; viability, T/C (second compound 0.000949 µM, first compound 0.03 µM): 76.2%; viability, T/C [16]: 76.2%; viability, T/C (second compound 0.003 µM, first compound 0.00949 µM): 53.1%; viability, T/C (second compound 0.003 µM, first compound 0.03 µM): 70.3%; viability, T/C [17]: 85.7%; viability, T/C [18]: 24.9%; viability, T/C [19]: 20.6%; viability, T/C [20]: 0.42%
O=C(c1cc(Cc2n[nH]c(=O)c3ccccc23)ccc1F)N1CCN(C(=O)C2CC2)CC1 + COc1cc2c(cc1O)CCNC21CSC2c3c(OC(C)=O)c(C)c4c(c3C(COC1=O)N1C(O)C3Cc5cc(C)c(OC)c(O)c5C(C21)N3C)OCO4	> 30	> 30	> 30	> 30	< 0.0949	94.5	109	109	108	109	95	105	101	115	129	126	118	126	112	100	viability, T/C (second compound 30 pM, first compound 9.49 µM): 99.4%; viability, T/C (second compound 30 pM, first compound 30 µM): 82.5%; viability, T/C (second compound 94.9 pM, first compound 9.49 µM): 99.4%; viability, T/C (second compound 94.9 pM, first compound 30 µM): 102%; viability, T/C (second compound 0.0003 µM, first compound 9.49 µM): 112%; viability, T/C (second compound 0.0003 µM, first compound 30 µM): 93.2%; viability, T/C [16]: 103%; viability, T/C (second compound 0.000949 µM, first compound 9.49 µM): 87.4%; viability, T/C (second compound 0.000949 µM, first compound 30 µM): 49.5%; viability, T/C [17]: 2.43%; viability, T/C [18]: 16.1%; viability, T/C [19]: 1.13%; viability, T/C [20]: 2.74%; viability, T/C (second compound 0.003 µM, first compound 9.49 µM): 0.95%; viability, T/C (second compound 0.003 µM, first compound 30 µM): 0.69%
